From patent US10730886B2, “Compound having effect of inhibiting platelet aggregation and salt thereof, and composition for preventing or treating thrombotic diseases, containing same” (SHIN POONG PHARMACEUTICAL CO., LTD., priority 2015, dated 2020)

Assays:
human platelets = experiment: Cytotoxicity in human platelets (LDH leakage); assay type: cell-based; conditions: 3 min
Procedure: 5-2. Evaluation of Cytotoxicity of Candidate Substances Using Human Platelets
Leakage of lactate dehydrogenase (LDH) from the platelets was measured by a spectro-photometry method. 1.2 μl of the test substance was added to 598.8 μl of PRP, and the mixture was reacted at 37° C. for 3 minutes using a thermomixer. After the reaction, 100 μl of the sample was centrifuged at 12,000 g for 2 minutes, and 80 μl of the supernatant was taken and refrigerated until evaluation. The evaluation was performed within 24 hours. […] 25 μl of the sample was added to 1 ml of a pre-warmed Tris-EDTA NADH solution (56 mM Tris(hydroxymethyl) aminomethane, 5.6 mM EDTA, 0.17 mM β-NADH pH 7.4) and reacted for 5 minutes at 37° C. Then, 100 μl of a 14 mM pyruvate solution previously heated at 37° C. was added to the reaction mixture, and absorbance was immediately measured at a wavelength of 339 nm for 1 minute using a spectrophotometer (UV-Vis spectrophotometer, UV-2201, Shidamadzu, Japan). The rate of decrease in absorbance means the rate of oxidation of NADH, indicating the activity of LDH liberated from platelets. Total activity of LDH was measured by inducing lysis of platelets with 0.3% Triton X-100. The basal level of LDH (Control) was measured in plasma. The activity of each sample was measured as a percentage of the total activity of LDH.

[1] = 2-week repeat-dose toxicity study; assay type: in vivo; conditions: both sexes, mouse, in vivo; ICR mice, oral 100, 300, 1000 mg/kg once a day for 2 weeks; read-out: NOAEL (No observed adverse effect level)
Procedure: (§1) After oral administration of vehicle (0.5% methylcellulose) or the candidate substances at low dose, medium dose, and high dose (100, 300, 1000 mg/kg) to ICR mice (female, male, 18 to 26 g) once a day for 2 weeks, the NOAEL values of the candidate substances were calculated by observing and recording mortality, body weight change, clinical observations, food and drinking water consumption, gross necropsy findings, histopathological evaluation of abnormal organ, and organ weights.

ICR mice = experiment: 2-week repeat-dose toxicity study; assay type: in vivo; conditions: oral 100, 300 and 1000 mg/kg once a day for 2 weeks
Procedure: as §1

ICR mouse = experiment: Bleeding side effect by repeated administration (tail bleeding time); conditions: 50 mg/kg oral once daily for 7 days
Procedure: One hour after the last administration, the mice were anesthetized by breathing, and the 4 mm portion from the tail tip of the mice was cut. Then, the tail tip of the mice was immersed in a transparent 15-ml tube containing the pre-prepared 37° C. saline. The time when blood was not spread any more and the bleeding stopped was measured.

Row | SMILES | LDH leakage (%, Mean ± SEM) (human platelets; 25 μM) [%] | LDH leakage (%, Mean ± SEM) (human platelets; 100 μM) [%] | LDH leakage (%, Mean ± SEM) (human platelets; 250 μM) [%] | NOAEL at 2 weeks [1] [mg/kg] | findings in body weight change, clinical observations, food and drinking water consumption, gross necropsy findings, and organ weights (ICR mice) | mortality (ICR mice) | Bleeding time (ICR mouse) [min]
1 | O=C(c1ccc(O)c(O)c1)N1CCc2sccc2C1 [Example 1, (6,7-Dihydrothieno[3,2-c]pyridin-5(4H)-yl)(3,4-dihydroxyphenyl)methanone] | 2.7 ± 0.5 | 2.4 ± 0.2 | 2.7 ± 0.5 | – | – | – | –
2 | COc1cc(C(=O)N2CCc3sccc3C2)ccc1O [Example 12, (6,7-Dihydrothieno[3,2-c]pyridin-5(4H)-yl)(4-hydroxy-3-methoxyphenyl)methanone] | 2.3 ± 0.5 | 3.6 ± 0.1 | 3.6 ± 0.8 | – | – | – | –
3 | CCc1occc(=O)c1OC(=O)c1ccc(O)c(OC)c1 [Example 13, 2-Ethyl-4-oxo-4H-pyran-3-yl 4-hydroxy-3-methoxybenzoate] | 2.2 ± 0.4 | 4.0 ± 1.2 | 4.0 ± 0.3 | > 1000 | no abnormal findings were observed | no dead animals were observed | 1.6 ± 0.4
4 | COc1cc(C(=O)Oc2c(C)occc2=O)ccc1O [Example 14, 2-Methyl-4-oxo-4H-pyran-3-yl 4-hydroxy-3-methoxybenzoate] | 4.8 ± 0.2 | 5.6 ± 0.9 | 4.2 ± 0.9 | > 1000 | no abnormal findings were observed | no dead animals were observed | 1.6 ± 0.3
5 | COc1ccc(NC(=O)c2ccc(O)c(OC)c2)c([N+](=O)[O-])c1 [Example 15, 4-Hydroxy-3-methoxy-N-(4-methoxy-2-nitrophenyl)benzamide] | 2.7 ± 0.1 | 3.2 ± 0.4 | 3.1 ± 1.3 | – | – | – | –
6 | O=C(c1cc(O)ccc1O)N1CCc2sccc2C1 [Example 20, (6,7-Dihydrothieno[3,2-c]pyridin-5(4H)-yl)(2,5-dihydroxyphenyl)methanone] | 4.1 ± 0.7 | 5.2 ± 0.4 | 3.5 ± 1.2 | – | – | – | –
7 | O=C(c1cc(O)ccc1O)N1CCC(c2noc3ccc(F)cc23)CC1 [Example 23, (2,5-Dihydroxyphenyl)(4-(5-fluorobenzo[d]isoxazol-3-yl)piperidin-1-yl)methanone] | 1.8 ± 0.1 | 2.2 ± 1.3 | 3.2 ± 0.5 | – | – | – | –
